Test results as given in patent US20050197364A1, “Amide compounds as ion channel ligands and uses thereof” (priority 2003, published 2005).

Each compound was assayed on VR1 receptor (assay: High throughput calcium imaging assay (Fura2, Flex Station) of VR1 antagonists, pH 5.1 stimulus). Details: 1 uM compound; inhibition of calcium ion influx induced by capsaicin stimulation.
Assay type: cell-based
Procedure: Therefore the functional activity of compounds at the VR1 receptor may be determined by measuring changes in intracellular calcium levels in 293 cells expressing capsaicin-insensitive VR1 receptor variants. A dual wavelength ratiometric dye, Fura2, was used as an indicator of relative levels of calcium ions in a 96 well format using a bench top scanning fluorometer with integrated fluidics and temperature control (Flex Station, Molecular Devices).
293 cells were grown on PDL coated 96-well black-walled plates, in the presence of a DMEM medium containing 5% Penstrep, 5% Glutamax, 200 ug/mL Hygromycin, 5 μg/mL Blasticide and 10% heat inactivated FBS. Prior to assay, the cells were loaded with 5 μg/mL Fura2 in normal saline solution at 37° C. for 40 minutes. Cells were then washed with normal saline to remove the dye.
The assay consists of two stages; a pre-treatment phase followed by a treatment phase.
50 μl of a compound solution was added to the cells (Pre-treatment). Immediately following, 50 μl of the test compound in a saline solution at pH 5.1 was added. Fura2 was excited at 340 and 380 nM to indicate relative calcium concentration. Changes in wavelength measurements were made throughout the course of the experiment in 4 second intervals over a period of 3 minutes. Responses were measured as peak fluorescence ratio after test compound addition minus baseline fluorescence ratio prior to pre-treatment and were calculated using SoftMaxPro softwareData were expressed as percentage inhibition calculated using Excel as follows: [formula]
In the case of `CCCCc1ccc(NC(=O)c2ccc(-c3ncccc3Cl)cn2)cc1` [Compound 302], the “% Inhibition @ 1 uM” value is reported as “+ + + (“+ + +” compound exhibited 50-75% inhibition of calcium ion influx induced by capsaicin stimulation.)”.
`CCOc1cccc(NC(=O)c2ccc(-c3ncccc3Cl)cn2)c1` [Compound 347] was tested, and the “% Inhibition @ 1 uM” value was “+ + + + (“+ + + +” compound exhibited 75% or greater inhibition of calcium ion influx induced by capsaicin stimulation.)”.
With `O=C(Nc1ccc(OC(F)(F)F)cc1)c1ccc(-c2ncccc2Cl)cn1` [Compound 343] the “% Inhibition @ 1 uM” value was “+ (“+” compound exhibited 0-25% inhibition of calcium ion influx induced by capsaicin stimulation.)”.
In the case of `COc1cc(C(=O)Nc2ccc(Br)cn2)ccc1-c1ncccc1Cl` [Compound 226], the “% Inhibition @ 1 uM” value is reported as “+ (“+” compound exhibited 0-25% inhibition of calcium ion influx induced by capsaicin stimulation.)”.
With `CC(C)(C)NC(=O)c1ccc(-c2ncccc2Cl)c(F)c1` [Compound 110] the “% Inhibition @ 1 uM” value was “+ (compound exhibited 0-25% inhibition of calcium ion influx induced by capsaicin stimulation)”.
With `CC(C)Oc1cccc(NC(=O)c2ccc(-c3ncccc3Cl)cc2)c1` [Compound 278] the “% Inhibition @ 1 uM” value was “+ (“+” compound exhibited 0-25% inhibition of calcium ion influx induced by capsaicin stimulation.)”.
With `O=C(Nc1ccc(C2CCCCC2)cc1)c1ccc(-c2ncccc2Cl)cn1` [Compound 303] the “% Inhibition @ 1 uM” value was “+ + + + (“+ + + +” compound exhibited 75% or greater inhibition of calcium ion influx induced by capsaicin stimulation.)”.
For `O=C(Nc1cc[nH]n1)c1ccc(-c2ncccc2Cl)cc1` [Compound 9], the “% Inhibition @ 1 uM” value was “+ (compound exhibited 0-25% inhibition of calcium ion influx induced by capsaicin stimulation)”.
`O=C(Nc1ccccc1Cl)c1ccc(-c2ncccc2Cl)cc1` [Compound 15] was tested, and the “% Inhibition @ 1 uM” value was “+ (compound exhibited 0-25% inhibition of calcium ion influx induced by capsaicin stimulation)”.
For `O=C(Nc1ccnc(Cl)c1)c1ccc(-c2ncccc2Cl)cn1` [Compound 325], the “% Inhibition @ 1 uM” value was “+ (“+” compound exhibited 0-25% inhibition of calcium ion influx induced by capsaicin stimulation.)”.
`O=C(Nc1ccc(Br)cn1)c1ccc(-c2ncccc2Cl)cc1` [Compound 49] was tested, and the “% Inhibition @ 1 uM” value was “+ + (compound exhibited 25-50% inhibition of calcium ion influx induced by capsaicin stimulation)”.
For `COc1cc(C(=O)Nc2ccc(C(F)(F)F)cc2)ccc1-c1ncccc1Cl` [Compound 213], the “% Inhibition @ 1 uM” value was “+ + (“+ +” compound exhibited 25-50% inhibition of calcium ion influx induced by capsaicin stimulation.)”.
With `O=C(Nc1ccncn1)c1ccc(-c2ncccc2Cl)cn1` [Compound 319] the “% Inhibition @ 1 uM” value was “+ + + + (“+ + + +” compound exhibited 75% or greater inhibition of calcium ion influx induced by capsaicin stimulation.)”.
`O=C(Nc1ccc(C2CCCCC2)cc1)c1ccc(-c2ncccc2Cl)cc1` [Compound 27] was tested, and the “% Inhibition @ 1 uM” value was “+ + + + (compound exhibited 75% or greater inhibition of calcium ion influx induced by capsaicin stimulation)”.
With `Cc1cccnc1NC(=O)c1ccc(-c2ncccc2Cl)cc1F` [Compound 95] the “% Inhibition @ 1 uM” value was “+ (compound exhibited 0-25% inhibition of calcium ion influx induced by capsaicin stimulation)”.
For `Cc1cc(NC(=O)c2ccc(-c3ncccc3Cl)cn2)nc(C)n1` [Compound 326], the “% Inhibition @ 1 uM” value was “+ (“+” compound exhibited 0-25% inhibition of calcium ion influx induced by capsaicin stimulation.)”.
For `COc1cc(C(=O)Nc2ccc(Cl)cc2S(=O)(=O)O)ccc1-c1ncccc1Cl` [Compound 261], the “% Inhibition @ 1 uM” value was “+ (“+” compound exhibited 0-25% inhibition of calcium ion influx induced by capsaicin stimulation.)”.
With `COc1ccccc1NC(=O)c1ccc(-c2ncccc2Cl)c(OC)c1` [Compound 194] the “% Inhibition @ 1 uM” value was “+ + (compound exhibited 25-50% inhibition of calcium ion influx induced by capsaicin stimulation)”.
`O=C(Nc1ccc2ncccc2c1)c1ccc(-c2ncccc2Cl)cc1F` [Compound 107] was tested, and the “% Inhibition @ 1 uM” value was “+ + (compound exhibited 25-50% inhibition of calcium ion influx induced by capsaicin stimulation)”.
In the case of `Cc1ccnc(NC(=O)c2ccc(-c3ncccc3Cl)cn2)c1` [Compound 318], the “% Inhibition @ 1 uM” value is reported as “+ (“+” compound exhibited 0-25% inhibition of calcium ion influx induced by capsaicin stimulation.)”.
In the case of `O=C(Nc1ccccc1Cl)c1ccc(-c2ncccc2Cl)cn1` [Compound 297], the “% Inhibition @ 1 uM” value is reported as “+ + + + (“+ + + +” compound exhibited 75% or greater inhibition of calcium ion influx induced by capsaicin stimulation.)”.
For `COc1cc(C(=O)Nc2cccc(Cl)c2)ccc1-c1ncccc1Cl` [Compound 193], the “% Inhibition @ 1 uM” value was “+ (compound exhibited 0-25% inhibition of calcium ion influx induced by capsaicin stimulation)”.
For `COc1ccc(NC(=O)c2ccc(-c3ncccc3Cl)c(F)c2)cc1O` [Compound 170], the “% Inhibition @ 1 uM” value was “+ + (compound exhibited 25-50% inhibition of calcium ion influx induced by capsaicin stimulation)”.
`COc1cc(C(=O)Nc2cccc(C(=O)O)c2)ccc1-c1ncccc1Cl` [Compound 241] was tested, and the “% Inhibition @ 1 uM” value was “+ (“+” compound exhibited 0-25% inhibition of calcium ion influx induced by capsaicin stimulation.)”.
With `CC(C)Oc1cccc(NC(=O)c2ccc(-c3ncccc3Cl)c(F)c2)c1` [Compound 177] the “% Inhibition @ 1 uM” value was “+ (compound exhibited 0-25% inhibition of calcium ion influx induced by capsaicin stimulation)”.
`O=C(Nc1ccc([N+](=O)[O-])cc1)c1ccc(-c2ncccc2Cl)cc1` [Compound 56] was tested, and the “% Inhibition @ 1 uM” value was “+ + + + (compound exhibited 75% or greater inhibition of calcium ion influx induced by capsaicin stimulation)”.
For `COc1cc(C(=O)Nc2cccc(C(F)(F)F)c2)ccc1-c1ncccc1Cl` [Compound 250], the “% Inhibition @ 1 uM” value was “+ + (“+ +” compound exhibited 25-50% inhibition of calcium ion influx induced by capsaicin stimulation.)”.
`COc1cc(NC(=O)c2ccc(-c3ncccc3Cl)cn2)cc(OC)c1OC` [Compound 339] was tested, and the “% Inhibition @ 1 uM” value was “+ (“+” compound exhibited 0-25% inhibition of calcium ion influx induced by capsaicin stimulation.)”.
In the case of `CC(C)(NC(=O)c1ccc(-c2ncccc2Cl)cc1F)c1ccccc1` [Compound 66], the “% Inhibition @ 1 uM” value is reported as “+ (compound exhibited 0-25% inhibition of calcium ion influx induced by capsaicin stimulation)”.
`CCCCc1ccc(NC(=O)c2ccc(-c3ncccc3Cl)cc2)cc1` [Compound 26] was tested, and the “% Inhibition @ 1 uM” value was “+ + (compound exhibited 25-50% inhibition of calcium ion influx induced by capsaicin stimulation)”.
`O=C(Nc1ccc2[nH]ccc2c1)c1ccc(-c2ncccc2Cl)cc1` [Compound 4] was tested, and the “% Inhibition @ 1 uM” value was “+ + + + (compound exhibited 75% or greater inhibition of calcium ion influx induced by capsaicin stimulation)”.
In the case of `CCCCc1ccc(NC(=O)c2ccc(-c3ncccc3Cl)c(F)c2)cc1` [Compound 127], the “% Inhibition @ 1 uM” value is reported as “+ + + + (compound exhibited 75% or greater inhibition of calcium ion influx induced by capsaicin stimulation)”.
`COc1ccc(NC(=O)c2ccc(-c3ncccc3Cl)c(OC)c2)cc1Cl` [Compound 212] was tested, and the “% Inhibition @ 1 uM” value was “+ + + (“+ + +” compound exhibited 50-75% inhibition of calcium ion influx induced by capsaicin stimulation.)”.
`COc1cc(C(=O)Nc2ccc(Cl)c(C(=O)O)c2)ccc1-c1ncccc1Cl` [Compound 242] was tested, and the “% Inhibition @ 1 uM” value was “+ + + + (“+ + + +” compound exhibited 75% or greater inhibition of calcium ion influx induced by capsaicin stimulation.)”.
`CCOC(=O)c1cccc(NC(=O)c2ccc(-c3ncccc3Cl)cc2)c1` [Compound 269] was tested, and the “% Inhibition @ 1 uM” value was “+ (“+” compound exhibited 0-25% inhibition of calcium ion influx induced by capsaicin stimulation.)”.
In the case of `COc1ccc(NC(=O)c2ccc(-c3ncccc3Cl)cc2)cc1` [Compound 5], the “% Inhibition @ 1 uM” value is reported as “+ + (compound exhibited 25-50% inhibition of calcium ion influx induced by capsaicin stimulation)”.
`COc1cc(C(=O)Nc2ccc3ccccc3c2)ccc1-c1ncccc1Cl` [Compound 236] was tested, and the “% Inhibition @ 1 uM” value was “+ + + + (“+ + + +” compound exhibited 75% or greater inhibition of calcium ion influx induced by capsaicin stimulation.)”.
With `CC(C)c1ccc(NC(=O)c2ccc(-c3ncccc3Cl)cc2)cc1` [Compound 25] the “% Inhibition @ 1 uM” value was “+ + + + (compound exhibited 75% or greater inhibition of calcium ion influx induced by capsaicin stimulation)”.
With `COc1cc(C(=O)Nc2ccc(F)cc2[N+](=O)[O-])ccc1-c1ncccc1Cl` [Compound 210] the “% Inhibition @ 1 uM” value was “+ + + + (“+ + + +” compound exhibited 75% or greater inhibition of calcium ion influx induced by capsaicin stimulation.)”.
For `COc1cc(NC(=O)c2ccc(-c3ncccc3Cl)cc2)cc(C(F)(F)F)c1` [Compound 28], the “% Inhibition @ 1 uM” value was “+ + (compound exhibited 25-50% inhibition of calcium ion influx induced by capsaicin stimulation)”.
For `CN(C)c1cccc(NC(=O)c2ccc(-c3ncccc3Cl)cc2)c1` [Compound 43], the “% Inhibition @ 1 uM” value was “+ + + + (compound exhibited 75% or greater inhibition of calcium ion influx induced by capsaicin stimulation)”.
With `O=C(Nc1ccc(N2CCNCC2)cc1)c1ccc(-c2ncccc2Cl)cc1` [Compound 45] the “% Inhibition @ 1 uM” value was “+ (compound exhibited 0-25% inhibition of calcium ion influx induced by capsaicin stimulation)”.
With `COc1cc(C(=O)Nc2ccc(Cl)c(C(F)(F)F)c2)ccc1-c1ncccc1Cl` [Compound 214] the “% Inhibition @ 1 uM” value was “+ (“+” compound exhibited 0-25% inhibition of calcium ion influx induced by capsaicin stimulation.)”.
In the case of `COc1cc(C(=O)Nc2nccs2)ccc1-c1ncccc1Cl` [Compound 235], the “% Inhibition @ 1 uM” value is reported as “+ (“+” compound exhibited 0-25% inhibition of calcium ion influx induced by capsaicin stimulation.)”.
For `COc1cc(C(=O)Nc2cccc(OC(C)C)c2)ccc1-c1ncccc1Cl` [Compound 253], the “% Inhibition @ 1 uM” value was “+ (“+” compound exhibited 0-25% inhibition of calcium ion influx induced by capsaicin stimulation.)”.
`COc1cc(C(=O)Nc2cccnc2)ccc1-c1ncccc1Cl` [Compound 219] was tested, and the “% Inhibition @ 1 uM” value was “+ (“+” compound exhibited 0-25% inhibition of calcium ion influx induced by capsaicin stimulation.)”.
`O=C(Nc1cccnc1)c1ccc(-c2ncccc2Cl)cc1F` [Compound 63] was tested, and the “% Inhibition @ 1 uM” value was “+ (compound exhibited 0-25% inhibition of calcium ion influx induced by capsaicin stimulation)”.
In the case of `O=C(Nc1ccc(N2CCNCC2)cc1)c1ccc(-c2ncccc2Cl)cn1` [Compound 317], the “% Inhibition @ 1 uM” value is reported as “+ (“+” compound exhibited 0-25% inhibition of calcium ion influx induced by capsaicin stimulation.)”.
With `O=C(Nc1ccc(C(F)(F)F)cn1)c1ccc(-c2ncccc2Cl)c(F)c1` [Compound 149] the “% Inhibition @ 1 uM” value was “+ + (compound exhibited 25-50% inhibition of calcium ion influx induced by capsaicin stimulation)”.

Same assay, conditions: 1 uM compound; inhibition of calcium ion influx induced by capsaicin stimulation; 1 µM
For `O=C(Nc1ccc2ccccc2c1)c1ccc(-c2ncccc2Cl)cc1` [Compound 57], the “% Inhibition @ 1 uM” value was “+ + + + (compound exhibited 75% or greater inhibition of calcium ion influx induced by capsaicin stimulation)”.
